What is called EC50 is the concentration at which the effect is half-maximal.

SMILES strings stand for the structures.

One assay has as its target T1, recombinant human glucokinase (Homo sapiens, UniProt P35557).
T1 construct: Full-length glucokinase (beta cell isoform) was His-tagged at the N-terminus and purified by a Ni column followed by size exclusion chromatography as described above; His tag; made in house; host or cells: E. coli BL21(DE3), vector pBCGK
T1 sequence (P35557 1-465): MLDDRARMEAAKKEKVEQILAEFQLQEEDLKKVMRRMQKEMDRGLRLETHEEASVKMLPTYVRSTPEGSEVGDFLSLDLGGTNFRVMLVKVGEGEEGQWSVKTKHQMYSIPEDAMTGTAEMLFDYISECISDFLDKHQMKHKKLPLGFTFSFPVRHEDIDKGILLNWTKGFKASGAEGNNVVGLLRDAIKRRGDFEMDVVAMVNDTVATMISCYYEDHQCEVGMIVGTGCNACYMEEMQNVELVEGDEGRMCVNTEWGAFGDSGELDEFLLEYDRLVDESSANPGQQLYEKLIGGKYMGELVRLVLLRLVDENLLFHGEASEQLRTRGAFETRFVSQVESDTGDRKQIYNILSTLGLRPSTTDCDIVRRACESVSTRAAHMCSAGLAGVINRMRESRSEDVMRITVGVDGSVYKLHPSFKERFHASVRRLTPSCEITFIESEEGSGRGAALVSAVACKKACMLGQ
The experiment in a line: Assay 2: Evaluating Activator Potency in a Matrix Assay at Multiple Glucose Concentrations. Format: biochemical. The note with it: Assay 2 matrix assay; 16 glucose concentrations; intrinsic EC50 = concentration affording a 50% reduction in the enzyme's Km (for glucose); read-out: Glucokinase EC50. Here is the method:
Representative compounds of this invention were evaluated in biochemical assays (Assay 1 or Assay 2) to characterize their glucokinase activation properties.
The recombinant human glucokinase protein utilized in both assays was prepared and purified as described below.
BL21(DE3) cells (Invitrogen Corporation, Carlsbad, Calif.) containing pBCGK (C or N H is) vector were grown at 37° C. (in 2XYT) until the OD600 was between 0.6-1.0. Expression was induced by addition of isopropylthiogalactoside to a final concentration of 0.1-0.2 mM to the cells which were then incubated overnight at 23° C. The next day, cells were harvested via centrifugation at 5000 rpm for 15 minutes at 4° C. The cell pellet was stored at −80° C. for future purification.
Beta Cell Glucokinase His-Taq Purification Conditions: A Ni-NTA (Quigan, Germantown, Md.) column (15-50 mL) was used for separation. Two buffers were prepared, 1) a lysis/nickel equilibration and wash buffer and 2) a nickel elution buffer. The lysis/equilibration/wash buffer was prepared as such: 25 mM HEPES buffer at pH 7.5, 250 mM NaCl, 20 mM imidazole, and 14 mM β-mercaptoethanol as final concentrations. The elution buffer was prepared as such: 25 mM HEPES at pH 7.5, 250 mM NaCl, 400 mM imidazole, and 14 mM β-mercaptoethanol as final concentrations. The buffers were each filtered with a 0.22 μm filter prior to use. The cell pellet (1 L culture) was resuspended in 300 mL of the lysis/equilibration buffer. The cells were then lysed (3 times) with a Microfluidics Model 110Y microfluidizer (Microfluidics Corporation, Newton, Mass.). The slurry was centrifuged with a Beckman Coulter Model LE-80K ultracentrifuge (Beckman Coulter, Fullerton, Calif.) at 40,000 rpm for 45 minutes at 4° C. The supernatant was transferred to a chilled flask. A volume of 20 μl was saved for gel analysis. A Pharmacia AKTA (GMI, Inc., Ramsey, Minn.) purification system was used for separation. The prime lines were purged with lysis/equilibration buffer. The Ni-NTA column was equilibrated with 200 mL of the lysis/equilibration buffer at a flow rate of 5 mL/minute. The supernantant was loaded over the column at 4 mL/minute and the flow-through was collected in a flask. The unbound proteins were washed with lysis/equilibration buffer at a flow rate of 5 mL/minute until the ultraviolet reaches baseline. The protein was then eluted from the column with the imidazole elution buffer via imidazole gradient 20 mM to 400 mM over 320 mL. The column was then stripped of any additional protein with 80 mL of the elution buffer. The elution fractions were each 8 mL, for a total yield of 50 samples. Fractions were analyzed by sodium dodecyl sulfate polyacrylamide (SDS-PAGE) and the fractions containing protein of interest were pooled and concentrated to 10 mL using ultrafiltration cell with a 10,000 molecular weight cut-off (MWCO) Millipore membrane (Sigma-Aldrich, St. Louis, Mo.) under nitrogen gas (60 psi). Protein was further purified by size exclusion chromatography (SEC) using a […] (320 mL) (Amersham Pharmacia, Uppsala, Sweden). SEC was equilibrated with 450 mL sizing buffer containing 25 mM HEPES pH 7.0, 50 mM NaCl, and 5 mM dithiothreitol. Concentrated protein was then loaded over SEC and elution with 400 mL sizing buffer was performed overnight at 0.5 mL/minute. The elution fractions were 5 mL each. The fractions were analyzed by SDS-PAGE and protein containing fractions were pooled. Concentration was measured using Bradford Assay/BSA Standard. Purified protein was stored in small aliquots at −80° C.
Assay 2: Evaluating Activator Potency in a Matrix Assay at Multiple Glucose Concentrations
Utilizing an adaptation of this method, representative compounds of the current invention were evaluated at 22 different concentrations and 16 different glucose concentrations in a coupled enzyme assay system that detects glucokinase activity via depletion of β-NADH.
For the molecule `CCS(=O)(=O)N(C)c1cnc(Oc2cc(C(=O)Nc3ccc(C)cn3)cc3nn(C)cc23)cn1` [Example 1AY, 4-({5-[(ethylsulfonyl)(methyl)amino]pyrazin-2-yl}oxy)-2-methyl-N-(5-methylpyridin-2-yl)-2H-indazole-6-carboxamide], the 50% effective concentration (EC50) is 673 nM.
For `CCn1cc2c(Oc3cnc(C(=O)N(C)C)c(F)c3)cc(C(=O)Nc3cnccn3)cc2n1` [Example 1BB, 4-(6-(dimethylcarbamoyl)-5-fluoropyridin-3-yloxy)-2-ethyl-N-(pyrazin-2-yl)-2H-indazole-6-carboxamide], the EC50 came to 195 nM.
Same read-out and setting: under `Cc1cnc(NC(=O)c2cc(Oc3cnc(C(=O)N4CCC4)c(F)c3)c3cn(C)nc3c2)cn1` [Example 1BC, 4-(6-(azetidine-1-carbonyl)-5-fluoropyridin-3-yloxy)-2-methyl-N-(5-methylpyrazin-2-yl)-2H-indazole-6-carboxamide] stands 368 nM; under `CCn1cc2c(Oc3cnc(C(=O)N(C)C)nc3)cc(C(=O)Nc3ccc(C)cn3)cc2n1` [Example 1BD, 4-(2-(dimethylcarbamoyl)pyrimidin-5-yloxy)-2-ethyl-N-(5-methylpyridin-2-yl)-2H-indazole-6-carboxamide], 383 nM; under `COc1cnc(NC(=O)c2cc(Oc3cnc(C(=O)N(C)C)c(F)c3)c3cn(C)nc3c2)cn1` [Example 1BE, 4-(6-(dimethylcarbamoyl)-5-fluoropyridin-3-yloxy)-N-(5-methoxypyrazin-2-yl)-2-methyl-2H-indazole-6-carboxamide], 456 nM.
The same measure, in the same setting: next, `CCOc1cnc(NC(=O)c2cc(Oc3ccc(S(C)(=O)=O)cc3)c3cn(CC)nc3c2)cn1` [Example 1BG, N-(5-ethoxypyrazin-2-yl)-2-ethyl-4-[4-(methylsulfonyl)phenoxy]-2H-indazole-6-carboxamide]: 203 nM; `CCc1cnc(NC(=O)c2cc(Oc3ccc(S(C)(=O)=O)cc3)c3cn(CC)nc3c2)cn1` [Example 1BH, 2-ethyl-N-(5-ethylpyrazin-2-yl)-4-[4-(methylsulfonyl)phenoxy]-2H-indazole-6-carboxamide]: 536 nM; `CCOc1cnc(NC(=O)c2cc(Oc3ccc(S(N)(=O)=O)cc3)c3cn(CC)nc3c2)cn1` [Example 1BI, 4-[4-(aminosulfonyl)phenoxy]-N-(5-ethoxypyrazin-2-yl)-2-ethyl-2H-indazole-6-carboxamide]: 49900 nM.
For the molecule `CN(C)S(=O)(=O)c1ccc(Oc2cc(C(=O)Nc3ccn(C)n3)cc3nn(C)cc23)cc1` [Example 1BK, 4-{4-[(dimethylamino)sulfonyl]phenoxy}-2-methyl-N-(1-methyl-1H-pyrazol-3-yl)-2H-indazole-6-carboxamide], the EC50 turned out to be 1010 nM.
As to `CNS(=O)(=O)c1ccc(Oc2cc(C(=O)Nc3ccn(C)n3)cc3nn(C)cc23)cc1` [Example 1BL, 2-methyl-4-{4-[(methylamino)sulfonyl]phenoxy}-N-(1-methyl-1H-pyrazol-3-yl)-2H-indazole-6-carboxamide], the EC50 worked out at 1800 nM.
For the molecule `CCn1ccc(NC(=O)c2cc(Oc3ccc(S(C)(=O)=O)cc3)c3cn(CC)nc3c2)n1` [Example 1BM, 2-ethyl-N-(1-ethyl-1H-pyrazol-3-yl)-4-[4-(methylsulfonyl)phenoxy]-2H-indazole-6-carboxamide], the EC50 came out at 1900 nM.
For `CNS(=O)(=O)c1ccc(Oc2cc(C(=O)Nc3cnc(OC)cn3)cc3nn(C)cc23)cc1` [Example 1BN, N-(5-methoxypyrazin-2-yl)-2-methyl-4-{4-[(methylamino)sulfonyl]phenoxy}-2H-indazole-6-carboxamide], the EC50 worked out at 684 nM.
`Cn1ccc(NC(=O)c2cc(Oc3cnc(C(=O)N4CCCC4)cn3)c3cn(C)nc3c2)n1` [Example 1BO, 2-methyl-N-(1-methyl-1H-pyrazol-3-yl)-4-(5-(pyrrolidine-1-carbonyl)pyrazin-2-yloxy)-2H-indazole-6-carboxamide]: the EC50 was 250 nM.
The same measure, in the same setting: under `CCn1cc2c(Oc3cnc(C(=O)N4CCCC4)cn3)cc(C(=O)Nc3cnc(C)cn3)cc2n1` [Example 1BP, 2-ethyl-N-(5-methylpyrazin-2-yl)-4-(5-(pyrrolidine-1-carbonyl)pyrazin-2-yloxy)-2H-indazole-6-carboxamide] stands 290 nM; under `CCn1cc2c(Oc3cnc(C(=O)N4CCC4)cn3)cc(C(=O)Nc3ccn(C)n3)cc2n1` [Example 1BQ, 4-(5-(azetidine-1-carbonyl)pyrazin-2-yloxy)-2-ethyl-N-(1-methyl-1H-pyrazol-3-yl)-2H-indazole-6-carboxamide], 699 nM.
In the case of `CCn1cc2c(Oc3cnc(C(=O)N4CCC4)cn3)cc(C(=O)Nc3cnc(C)cn3)cc2n1` [Example 1BR, 4-(5-(azetidine-1-carbonyl)pyrazin-2-yloxy)-2-ethyl-N-(5-methylpyrazin-2-yl)-2H-indazole-6-carboxamide], the EC50 stood at 790 nM.
In the case of `Cn1ccc(NC(=O)c2cc(Oc3cnc(C(=O)N4CCC4)cn3)c3cn(C)nc3c2)n1` [Example 1BS, 4-(5-(azetidine-1-carbonyl)pyrazin-2-yloxy)-2-methyl-N-(1-methyl-1H-pyrazol-3-yl)-2H-indazole-6-carboxamide], the EC50 came to 798 nM.
The same measure, in the same setting: next, `CC(C)n1cc2c(Oc3cnc(C(=O)N4CCC4)cn3)cc(C(=O)Nc3ccn(C)n3)cc2n1` [Example 1BT, 4-(5-(azetidine-1-carbonyl)pyrazin-2-yloxy)-2-isopropyl-N-(1-methyl-1H-pyrazol-3-yl)-2H-indazole-6-carboxamide]: 979 nM.
With `CCn1cc2c(Oc3cnc(C(=O)N(C)C)cn3)cc(C(=O)Nc3ccn(C)n3)cc2n1` [Example 1BU, 4-(5-(dimethylcarbamoyl)pyrazin-2-yloxy)-2-ethyl-N-(1-methyl-1H-pyrazol-3-yl)-2H-indazole-6-carboxamide], the EC50 was 1050 nM.

Staying with this assay, now noted: Glucokinase EC50, Assay 2 matrix assay; 16 glucose concentrations; intrinsic EC50 = concentration affording a 50% reduction in the enzyme's Km (for glucose).
As for `CCn1cc2c(Oc3cnc(C(=O)N4CCC4)c(F)c3)cc(C(=O)Nc3cnc(C)cn3)cc2n1` [Example 1AZ, 4-(6-(azetidine-1-carbonyl)-5-fluoropyridin-3-yloxy)-2-ethyl-N-(5-methylpyrazin-2-yl)-2H-indazole-6-carboxamide], the EC50 came to 108 nM.
As to `CCn1cc2c(Oc3cnc(C(=O)N4CCC4)c(F)c3)cc(C(=O)Nc3ccn(C)n3)cc2n1` [Example 1BA, 4-(6-(azetidine-1-carbonyl)-5-fluoropyridin-3-yloxy)-2-ethyl-N-(1-methyl-1H-pyrazol-3-yl)-2H-indazole-6-carboxamide], the EC50 amounted to 191 nM.
